Results taken from PubChem BioAssay AID493048 (Broad Institute, 2011).
The source made the active and inactive calls. How the calls were made is not given here.

target: GTP-binding nuclear protein Ran (Homo sapiens) + Importin subunit beta-1 (Homo sapiens) (UniProt P62826+Q14974); assay: RanGTP/importin-beta interaction disruptors – biochemical, plate reader, dry powder, dose response (AID 493048); settings: biochemical RanGTP-importin-beta complex

Row | AC50 | SMILES
1 | 28.2 µM | Cc1cccc(-n2c(C)cc(/C=C3/C(=N)N4N=C(CC(C)C)SC4=NC3=O)c2C)c1
2 | 10.3 µM | CC1=C(C(=O)OCC2CCCO2)C(c2ccccc2OC(C)C)C2C(=O)CC(c3ccco3)CC2=N1 (stereo unspecified)
3 | 90.9 µM | O=C(O)Cn1cc(/C=C2\SC(=O)N(CC(=O)N3CCCCCC3)C2=O)c2ccccc21
4 | 36.4 µM | C=CCn1c(N)c(C(=O)OCCC)c2nc3ccccc3nc21
5 | 12.9 µM | COc1cc(OC)cc(C(=O)NCCNc2nc3cc(C)cc(C)c3cc2C#N)c1
6 | 61.5 µM | COc1ccc(-c2cc(C(F)(F)F)n3nc(N)nc3n2)cc1
7 | 9.68 µM | COc1ccc(CCNC(=O)c2cc3c(=O)n4cccc(C)c4nc3n(CCCN3CCOCC3)c2=N)cc1
8 | 37.3 µM | CC(C)SCC(=O)Nc1ncc2c(n1)-c1ccccc1CC2

same assay, conditions: biochemical RanGTP-importin-beta complex, at 26 µM (top of the series)

Row | activity change, negative = inhibition | SMILES
9 | inactive | CCCN(CCC)c1nc(N2CCCC2)c2cc(OC)c(OC)cc2n1

same assay, conditions: biochemical RanGTP-importin-beta complex, at 50 µM (top of the series)

Row | activity change, negative = inhibition | SMILES
10 | inactive | CCCN(CCC)c1nc(N2CCCC2)nc2cc(OC)c(OC)cc12

same assay, conditions: biochemical RanGTP-importin-beta complex, at 100 µM (top of the series)

Row | activity change, negative = inhibition | SMILES
11 | inactive | Cc1cccc(C)c1NC(=O)C1C(=O)c2sccc2N(C)S1(=O)=O (stereo unspecified)
12 | inactive | CC1(C)CC(=O)c2c(C(F)(F)F)nn(-c3ccc(C(N)=O)c(NC4CCC(OC(=O)CN)CC4)c3)c2C1 (stereo unspecified)
13 | inactive | c1ccc2c(N3CCOCC3)nc(N3CCOCC3)nc2c1
14 | inactive | CCNc1nc(N2CCCC2)nc2ccccc12
15 | inactive | O=c1[nH]c(N2CCCC2)nc2ccccc12
16 | inactive | COc1cc2nc(N3CCCC3)nc(N3CCCC3)c2cc1OC
17 | inactive | CCCN(CCC)c1nc(N)c2ccccc2n1
18 | inactive | Clc1nc(NCc2ccccc2)c2ccccc2n1
19 | inactive | CCCN(CCC)c1nc(Cl)nc2ccccc12
20 | inactive | CCCN(CCC)c1nc(NCc2ccccc2)nc2ccccc12
21 | inactive | C[C@H](Nc1nc(N2CCCC2)nc2ccccc12)c1ccccc1
22 | inactive | c1ccc2c(N3CCCC3)nc(N3CCCC3)nc2c1
23 | inactive | Cc1cc(Nc2ccc(C(F)(F)F)cc2)n2ncnc2n1
24 | inactive | CCCN(CCC)c1nc(N2CCNCC2)c2ccccc2n1
25 | inactive | C[C@H](Nc1nc(Cl)nc2ccccc12)c1ccccc1
26 | inactive | CSc1ccc(/C=C(/Sc2nnc(-c3ccccc3)o2)C(=O)O)cc1
27 | inactive | CC1(C)CC(=O)c2c(C(F)(F)F)nn(-c3ccc(C(N)=O)c(NC4CCC(O)CC4)c3)c2C1 (stereo unspecified)
28 | inactive | C[C@@H](Nc1nc(N2CCCC2)nc2ccccc12)c1ccccc1
29 | inactive | c1ccc(CNc2nc(N3CCCC3)nc3ccccc23)cc1
30 | inactive | CCCN(CCC)c1nc(N2CCOCC2)nc2ccccc12
31 | inactive | CC1(C)CCC(c2ccc(Cl)cc2)=C(CN2CCN(c3ccc(C(=O)NS(=O)(=O)c4ccc(N[C@H](CCN5CCOCC5)CSc5ccccc5)c(S(=O)(=O)C(F)(F)F)c4)cc3)CC2)C1
32 | inactive | CCCN(CCC)c1nc(N2CCCC2)nc2ccccc12
33 | inactive | C[C@@H](Nc1nc(Cl)nc2ccccc12)c1ccccc1
34 | inactive | CCN(CC)c1nc(N2CCCC2)nc2ccccc12
35 | inactive | CC1(C)CC(=O)c2c(C(F)(F)F)nn(-c3ccc(C(N)=O)c(OC4CCC(N)CC4)c3)c2C1 (stereo unspecified)
36 | inactive | CC(Nc1nc(N2CCCC2)nc2ccccc12)c1ccccc1 (stereo unspecified)
